Here are results for two molecules from patent publication US20060199832A1, “Use of non-immunosupressive pipecolic acid derivatives for inducing chondrogenic differentiation” (Astellas Pharma Inc., priority 2003, published 2006).

In the experiment the test system is ATDC5 cells. Nature of the experiment: Induction of chondrogenic differentiation of ATDC5 cells (Alcian blue staining of proteoglycan). The experiment is classed as cell-based. The settings on record: ATDC5 cells incubated for 24 days; compound (1) at 1-10000 ng/ml; results in FIG. 1. Here is the method:
The inducing activity by the compound (1) on chondrogenic differentiation was evaluated in accordance with the below-mentioned method.
(1) The ATDC5 cell line provided by RIKEN Cell Bank (Tsukuba, Japan) was grown in a 1:1 mixture of Dulbecco's modified Eagle's medium and Ham's F12 medium (Nikken Biomedical Laboratory, Kyoto, Japan) supplemented with 10% heat-inactivated fetal bovine serum (Intergen, Purchase, N.Y.).
(2) The above ATDC5 cells were plated in 12-multiwell plastic plate at a density of 1×10^5 cells/well in the medium. After 4 hr, the medium was replaced with fresh medium containing the compound (1) or Cyclosporin A (CsA), and the culture was continued for a 24 days with medium change every 2 or 3 days. Cells were fixed with methanol and stained 0.1% Alcian blue (Sigma Chemical Co., St. Louis, Mo.) dissolved in 0.1 M hydrochloric acid for 16 hr at room temperature. Cells were then rinsed three times with distilled water, and the amount of cell-associated dye was measured at 620 nm after extraction with 6 M guanidine-HCl (300 μl/well)
ATDC5 cells were incubated with the compound (1) or CsA for 24 days and the amount of proteoglycan was assayed.

As to `COC1CC(/C=C(\C)C2OC(=O)C3CCCCN3C(=O)C(=O)C3(O)OC(C(OC)CC(C)C/C(C)=C/C(CC(C)=O)C(=O)CC(O)C2C)C(OC)CC3C)CCC1O` (centres unmarked) [compound (1)], the “chondrogenic differentiation (amount of proteoglycan, cell-associated Alcian blue dye measured at 620 nm)” value is given as “induced differentiation into chondrocyte in a concentration-dependent manner”.
In the case of Cyclosporin A [CsA], the “chondrogenic differentiation (amount of proteoglycan, cell-associated Alcian blue dye measured at 620 nm)” value is listed as “did not induce the differentiation”.
